# Key:
# HCE-Zellen = assay type: cell-based, human
# Procedure: Die Erfindung wird im Folgenden rein zu Veranschaulichungszwecken anhand der angehängten Figuren und von Ausführungsbeispielen näher erläutert. • Figur 1 Effekt von 0,025% BBG auf die Toxizität von unterschiedlichen Konzentrationen (in Gew.-%) von Benzalkoniumchlorid (BAK) auf HCE-Zellen (HCE = human corneal epithelium, Menschliche Hornhautepithelzellen) bei verschiedenen Einwirkdauern (5, 30, 60 min). Oben: BAK ohne BBG. Unten: BAK mit BBG. Inkubationsmedium: Phosphat-gepufferte Kochsalzlösung (PBS). • Figur 2 Effekt von BBG (in Gew.-%) in unterschiedlichen Konzentrationen auf die Toxizität von BAK bei 0,003% (oben) und 0,008% (unten). PBS = Phosphat-gepufferte Kochsalzlösung; BBS = balanced salt solution (ausgeglichene Salzlösung). • Figur 3 Effekt von BBG (0,025 Gew.-%) auf die Toxizität von Octenidindihydrochlorid (Oct) in unterschiedlichen Konzentrationen (in Gew.-%) nach 5 min Inkubation (oben) und 30 min Inkubation (unten). Octenidin alone = Octenidin allein (ohne BBG). • Figur 4 Effekt von BBG (0,025 %) auf die Toxizität von Cetylpyridiniumchlorid (CPC) in unterschiedlichen Konzentrationen (in Gew.-%) nach 5 min Inkubation (oben) und 30 min Inkubation (unten). CPC alone = Cetylpyridiniumchlorid allein (ohne BBG). • Figur 5 Effekt von BBG (0,025 %) auf die Toxizität von Chlorhexidin (CHex) in Form von Chlorhexidindigluconat in unterschiedlichen Konzentrationen (in Gew.-%) nach 5 min Inkubation (oben) und 30 min Inkubation (unten). Chlorhexidin alone = Chlorhexidin allein (ohne BBG)
# Figur 1 zeigt die Wirkung von BBG 0,025% Gew.-% auf die Toxizität von unterschiedlichen Konzentrationen (in Gew.-%) von Benzalkoniumchlorid (BAK) auf HCE-Zellen (HCE = human corneal epithelium, Menschliche Hornhautepithelzellen) bei verschiedenen Einwirkdauern (5, 30, 60 min).
# Figur 2 zeigt die Wirkung von BBG (in Gew.-%) in unterschiedlichen Konzentrationen und zwei unterschiedlichen Medien (PBS und BSS) auf die Toxizität von BAK bei 0,003% (oben) und 0,008% (unten) bei HCE-Zellen. Die Schutzwirkung von BBG bei niedrigeren BAK-Konzentrationen setzt schon bei 0,003% BBG ein. Bei höheren BAK-Konzentrationen sind 0,015% notwendig.
# Figur 3 zeigt die Wirkung von BBG (0,025 Gew.-%) auf die Toxizität von Octenidin (Oct) Form von Octenidindihydrochlorid in unterschiedlichen Konzentrationen (in Gew.-%) nach 5 min Inkubation (oben) und 30 min Inkubation (unten). Octenidin alone = Octenidin allein (ohne BBG). […] BBG (0,025 Gew.-%) kann diesen Effekt bei 5 min Inkubation (links) bis zu einer Oct-Konzentration von 0,01% (der höchsten getesteten Konzentration) verhindern. Bei 30 min Einwirkzeit (rechts) ist erst ab 0,009 Gew.-% Oct der Schutz nicht mehr maximal.
# Die Figuren 4 und 5 zeigen die Wirkung von BBG (0,025 Gew.-%) auf die Toxizität von Cetylpyridiniumchlorid (CPC, Fig. 4) und Chlorhexidin (CHex in Form von Chlorhexidindigluconat, Fig. 5) in unterschiedlichen Konzentrationen (in Gew.-%) nach 5 min Inkubation (jeweils oben) und 30 min Inkubation (jeweils unten).
# P2X7-Rezeptor = molecular target: T1, P2X7-Rezeptor (Rattus norvegicus, UniProt Q64663); conditions: Jiang et al. 2000; cited from earlier work
# T1 sequence (Q64663 1-595): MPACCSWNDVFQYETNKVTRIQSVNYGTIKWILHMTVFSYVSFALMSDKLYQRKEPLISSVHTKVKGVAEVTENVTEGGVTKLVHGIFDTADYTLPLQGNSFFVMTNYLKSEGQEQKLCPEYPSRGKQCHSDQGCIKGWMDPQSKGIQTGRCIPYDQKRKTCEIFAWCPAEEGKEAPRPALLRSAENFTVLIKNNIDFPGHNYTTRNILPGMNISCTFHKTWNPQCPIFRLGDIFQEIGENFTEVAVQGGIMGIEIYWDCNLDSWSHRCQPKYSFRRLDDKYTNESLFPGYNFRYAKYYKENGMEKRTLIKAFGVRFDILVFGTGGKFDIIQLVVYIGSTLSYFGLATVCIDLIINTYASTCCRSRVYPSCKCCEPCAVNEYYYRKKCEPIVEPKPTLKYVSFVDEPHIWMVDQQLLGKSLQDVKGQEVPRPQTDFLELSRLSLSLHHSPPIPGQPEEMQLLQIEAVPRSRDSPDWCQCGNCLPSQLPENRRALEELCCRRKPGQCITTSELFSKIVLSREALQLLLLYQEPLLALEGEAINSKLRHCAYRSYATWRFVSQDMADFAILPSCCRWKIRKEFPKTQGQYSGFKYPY
# Bacillus megaterium = test: Bacteriostatic effect of Octenidin with BBG: turbidity after 24 h incubation; assay type: cell-based; design: key: +: Bakterienwachstum nach 24 h Inkubation; -: kein Bakterienwachstum nach 24 h Inkubation; +/-: geringes Wachstum nach 24 h Inkubation
# Procedure: Zur Untersuchung des Einflusses von BBG auf die bakteriostatische Wirkung wurden Bakterien 24 h mit erfindungsgemäßen Zusammensetzungen, Benzalkoniumchlorid (BAK) und Octenidin (Oct) als Bakteriostatikum enthielten, inkubiert. Wenn sich die Inkubationsmischung trübte, wurde das als Bakterienwachstum interpretiert. Zum Vergleich wurde Brillantblau R (BBR) anstelle von BBG eingesetzt. Die Ergebnisse sind in den Tabellen 1-4 wiedergegeben. Tabelle 1: Einfluss von BBG und BBR auf die bakteriostatische Wirkung von BAK gegenüber Escherichia coli (E. coli), + = Bakterienwachstum nach 24 h Inkubation, - = kein Bakterienwachstum nach 24 h Inkubation, R = Brillantblau R (BBR), G = Brillantblau G (BBG).
# Tabelle 4: Einfluss von BBG auf die bakteriostatische Wirkung von Octenidin (Oct) gegenüber Gram-positiven Bakterien., + = Bakterienwachstum nach 24 h Inkubation, - = kein Bakterienwachstum nach 24 h Inkubation, +/- = geringes Wachstum nach 24 h Inkubation, BBG = Brillantblau G.
compound,measurement,setting,value
"CCOc1ccc(Nc2ccc(C(=C3C=CC(=[N+](CC)Cc4cccc(S(=O)(=O)[O-])c4)C=C3C)c3ccc(N(CC)Cc4cccc(S(=O)(=O)O)c4)cc3C)cc2)cc1 [BBG, Brillantblau G]",Überleben,HCE-Zellen,leichten Erniedrigung des Überlebens
same,Schutzwirkung (=erhöhtes Zellüberleben),"HCE-Zellen; BBG 0,025% with BAK, 60 min Einwirkzeit, PBS (Figur 1)",noch deutlich vorhanden
same,"CPC-Konzentration, bis zu der der Schutzeffekt gegeben ist","HCE-Zellen; BBG 0,025 Gew.-% with CPC, 5 min and also 30 min Einwirkzeit (Figur 4)","~0,02%"
same,Schutzeffekt,"HCE-Zellen; BBG 0,025 Gew.-% with Chlorhexidin (Chlorhexidindigluconat), 5 and 30 min, compared with the CPC result (Figur 5)",Ähnliches gilt
same,"Oct-Konzentration, bis zu der BBG den zellschädigenden Effekt verhindert","HCE-Zellen; BBG 0,025 Gew.-%, 5 min Inkubation, highest Oct concentration tested (Figur 3)","≤ 0,01%"
same,"Oct-Konzentration, ab der der Schutz nicht mehr maximal ist","HCE-Zellen; BBG 0,025 Gew.-%, 30 min Einwirkzeit (Figur 3)","≥ 0,009 Gew.-%"
same,Schutzwirkung (zelltoxische Wirkung der Bakteriostatika bei gleichzeitiger Gabe),HCE-Zellen; dye given together with the bacteriostatic agent,stark reduziert
same,"BBG-Konzentration, die für die Schutzwirkung notwendig ist","HCE-Zellen; höhere BAK-Konzentration (BAK 0,008%), PBS and BSS (Figur 2)","0,015%"
same,"BBG-Konzentration, bei der die Schutzwirkung einsetzt","HCE-Zellen; niedrigere BAK-Konzentration (BAK 0,003%), PBS and BSS (Figur 2)","0,003%"
same,Hemmung des P2X7-Rezeptors,P2X7-Rezeptor,spezifisch nicht-kompetitiv hemmt
same,Bakterienwachstum nach 24 h Inkubation,"Bacillus megaterium; 0,015% BBG + Octenidin 0,003%",+/-
same,Bakterienwachstum nach 24 h Inkubation,"Bacillus megaterium; 0,030% BBG + Octenidin 0,005%",+/-
same,Bakterienwachstum nach 24 h Inkubation,"Bacillus megaterium; 0,030% BBG + Octenidin 0,007%",+/-
